Results from US20110081317A1, “Enhancing Gene Transfer” (UNIVERSITY OF ROCHESTER, priority 2007, published 2011).
Peptide text beside a SMILES is read from it. * marks the point of attachment. Cbz = O=C(OCc1ccccc1)*

Key:
HEK 293 cells [1] = test: Quantitative analysis of intranuclear lambda phage genomic DNA (qPCR); type: cell-based, Human; settings: Tpell phage, MOI 1×10^6, bortezomib 10 nM for 16 h, harvest at 24 h, p<0.01 vs untreated
Method: Quantitative analysis of intranuclear lambda phage genomic DNA. HEK 293 cells were incubated with phage lambda at a MOI of 10^6 in the presence or absence of 10 nM bortezomib. Sixteen (16) hours later, media was replaced with bortezomib-free DMEM (10% FBS); twenty-four (24) hours thereafter, cells were washed with cold PBS and non-internalized phage particles were then removed by performing 3 cold acid washes (0.2M CH3COOH, 0.5M NaCl, pH2.5), as described (Lankes et al., J. Appl. Microbiol 102(5):1337-49, 2007). […] Phage genomic DNA in the nuclear lysate was quantitated by DNA qPCR analysis on a BioRad iCycler using a TaqMan® (Roche Molecular Systems, Inc., Pleasanton, Calif.) primer/probe set specific for the lambda phage integrase gene (Probe: FAM-5′-[sequence]-3′-TAMRA (SEQ ID NO:2), Forward-5′-[sequence]-3′ (SEQ ID NO:3), Reverse-5′-[sequence]-3′ (SEQ ID NO:4)). Cellular chromosomal DNA in the nuclear lysate was also quantitated by DNA qPCR analysis using a TaqMan® (Roche Molecular Systems, Inc., Pleasanton, Calif.) primer/probe set specific for the 18S ribosomal RNA gene (Probe: FAM-5′-[sequence]-3′-TAMRA (SEQ ID NO:5), Forward-5′-[sequence]-3′ (SEQ ID NO:6), Reverse-5′-[sequence]-3′ (SEQ ID NO:7)). […]

HEK 293 cells [2] = test: Cytotoxicity / tolerability of proteasome inhibitors in HEK 293 cells; type: cell-based, Human
HEK 293 cells [3] = test: Phage-mediated luciferase gene transfer in HEK 293 cells; type: cell-based, Human; settings: for effect on phage-mediated luciferase gene transfer: MOI 1×10^6, omeprazole 50 μM, brefeldin A 500 ng/ml, chloroquine 50 μM for 24 h
Method: (§1) Preparation of bacteriophage lambda lysogens and vector production. The λD1180(luc) lysogen (Dam15 del EcoRI-Sac1 clts857 nin5 Sam100) has been described (Eguchi et al., J. Biol. Chem. 276(28):26204-10, 2001). The λD1180(luc) phage contains a firefly luciferase reporter gene under the regulatory control of the human cytomegalovirus immediate-early promoter. λD1180(luc) phage particles were prepared from E. coli lysogens that were stably transformed with either a plasmid encoding wildtype gpD or plasmids encoding gpD fusion proteins of interest, as described (Zanghi et al., Nucleic Acids Res. 33(18):e160, 2005). λ(luc) particles were purified by CsCl density gradient centrifugation and titered on LE392 E. coli cells (Zanghi et al., Nucleic Acids Res. 33(18):e160,2005).
(§2) Cells lines and phage transduction. Human embryonic kidney (HEK) 293 cells and COS simian kidney cells were obtained from American Type Culture Collection (ATCC), P.O. Box 1549, Manassas, Va. 20108. Cells were cultured in Dulbecco's Modified Eagle's Medium (DMEM) containing 10% fetal bovine serum, plus 2 mM L-glutamine and 100 U/ml penicillin, 100 μg/ml streptomycin. Twenty-four to forty-eight (24-48) hours following addition of phage to cells, cultures were washed with phosphate buffered saline (PBS) and lysed in passive lysis buffer (Promega Corporation, Madison, Wis.). Protein content in the lysates was quantitated by Bradford assay, and equal amounts of lysate (normalized in terms of protein content) were used in luciferase assays. Luciferase assay data are reported in relative light units.
(§3) To analyze the function of the proteasome in phage-mediated gene transfer, HEK 293A cells and COS-7 cells were incubated with luciferase encoding phage particles, in the presence or absence of three different pharmacologic inhibitors of proteasome activity (lactacystin, bortezomib and MG132). Lactacystin is an irreversible inhibitor of the 20S-proteasome, while bortezomib and MG132 are reversible inhibitors of the 26S-proteasome complex. […] The latter phage were generated by producing genetically gpD-deficient lambda phage particles in E. coli host cells that expressed a recombinant derivative of gpD, fused to a truncated PEST-like motif derived from seeligeriolysin O, a cholesterol-dependent cytolysin of Listeria seeligeri.

HEK 293 cells [4] = test: Plasmid (pCMV:luc) luciferase expression in transiently transfected HEK 293 cells; type: cell-based, Human; settings: pCMV:luc transfected HEK 293; bortezomib 10 nM for 16 h; luciferase at 48 h
Method: Transient transfection of cells with plasmid DNA. 1×10^4 HEK 293 cells were seeded into 96-well plates and incubated overnight. Cells were then transfected with 50 ng of a mammalian expression plasmid encoding the luciferase reporter gene (pgWiz-CMV luciferase) using lipofectamine-2000 reagent in the presence or absence of lOnM bortezomib. Four (4) hours thereafter, media were removed and fresh media were added (with or without bortezomib). Cells were incubated for an additional 12 hours, and media were again replaced (this time without any exogenous drug). Forty-eight (48) hours after transfection of the cells, they were washed with PBS, incubated in 1× passive lysis buffer (Promega Corporation, Madison, Wis.) and lyzed using two freeze-thaw cycles. Protein content within the lysates was then quantitated using Bradford assay and equal amounts of lysate (normalized in terms of protein content) were used in luciferase assays. Luciferase assay data are reported in relative light units.
Therefore, a control experiment was performed to determine whether proteasome inhibition exerted an effect on luciferase expression from a non-phage based gene transfer agent containing the same luciferase expression cassette present in λD1180(luc). […]

COS cells = test: Phage-mediated luciferase gene transfer in COS cells; type: cell-based, simian; settings: luciferase at 48 h; for effect on phage-mediated luciferase gene transfer: MOI 1×10^6, omeprazole 50 μM, brefeldin A 500 ng/ml, chloroquine 70 μM for 24 h
Method: as §1, §2, §3

[5] = tested on: COS cells stably transfected with Fc receptor (CD64) and its associated gamma chain; test: Plasmid/Lipofectamine-mediated luciferase gene transfer in CD64-expressing COS cells; type: cell-based; settings: 30 min pretreatment, luciferase at 48 h; for increase in plasmid gene transfer efficiency: nocodazole 5 μM or paclitaxel 20 μg/ml
Method: FIG. 12 is a graph showing plasmid mediated luciferase gene transfer in cells treated with a microtubule inhibitor. A DNA plasmid encoding a luciferase reporter gene was mixed with Lipofectamine. This was then added to COS cells that had been stably transfected with expression plasmids encoding a cellular Fc receptor (CD64) and its associated gamma chain, in the presence or absence (DNA only and DNA+DMSO) of latrunculin A (120 nM), paclitaxel (20 μg/ml), or nocodazole (5 μM). Cells were harvested 48 hours later and lysed, and luciferase activity measured.
A DNA plasmid encoding a luciferase reporter gene was mixed with Lipofectamine™ (Invitrogen, Carlsbad, Calif.). This was then added to COS cells that had been stably transfected expression plasmids encoding a cellular Fc receptor
(CD64) and its associated gamma chain. DNA was added to cells that had been pretreated for 30 minutes in the presence or absence of the microtubule inhibitors, nocodazole (5 μM) or paclitaxel (20 μg/ml), or the actin polymerization inhibitor, latrunculin A (120 nM). Cells were harvested 48 hours after transfection and lysed, and luciferase activity was measured.

HEK 293 cells [6] = test: Measurement of endosomal pH by flow cytometry of fluorescein/tetramethylrhodamine dextran; type: cell-based, Human; settings: 500 nM bafilomycin A1
Method: Measurement of endosomal pH. 5×10^5 HEK293 cells were preincubated in DMEM medium with 10% FBS (DMEM-10) overnight, after which the medium was replaced by DMEM-10 containing 2 mg/ml 70kD fluorescein and tetramethylrhodamine dextran (Invitrogen, Carlsbad, Calif.) plus either 100 nM or 500 nM bafilomycin A1 (BAF) or 2 mg/mL of nigericin (positive control) or no drug (negative control). One and a half (1.5) hours later, cells were washed in warm PBS and fresh media was added (with or without BAF or nigericin, as appropriate). Two (2) hours thereafter, cells were again washed with warm PBS, detached by trypsinization, washed with fresh media (with or without BAF or nigericin, as appropriate), and pelleted by centrifugation (5 minutes, 1000 g at 4° C.). Fluorescein
(F) and tetramethylrhodamine (T) fluorescence were quantitated by flow cytometric analysis using a FACS Calibur (Becton Dickinson). A standard curve was generated by suspending aliquots of cells (in the presence of 2 mg/ml of nigericin) in PBS at pH 4, 4.4, 5, 5.4, 6 and 6.4. The ratio of T/F fluorescence was then plotted against pH, to generate a standard curve; data from the bafilomycin-treated and non-treated cells were then extrapolated to this curve, in order to calculate endosomal pH.

COS-7 cells = test: Adenovirus vector (AdLucGFP) mediated luciferase gene transfer in COS-7 cells; type: cell-based; settings: AdLucGFP MOI 10, latrunculin A 120 nM added 30 min before transduction
Method: FIG. 13 is a graph showing, in cells treated with paclitaxel, nocodazole, or latrunculin A, adenoviral-mediated luciferase gene transfer. Latrunculin A ([…]), paclitaxel (20 μg/ml), or nocodazole (5 μM) was added to cells 30 minutes prior to transduction of COS-7 cells with a luciferase-expressing adenovirus vector (AdLucGFP) at a multiplicity of infection (MOI) of 10. Media were changed 24-hours post-transfection, and cells were lysed in Passive Lysis Buffer 24 hours later. Protein quantities were standardized and luciferase activity was measured in the cell lysates. The mean control level is shown as Ad only.
Latrunculin A (120 nM), paclitaxel (Taxol® (Bristol Meyers Squibb, Princeton, N.J.), 20 μg/ml), or nocodazole (5 μM) was added to cells 30 minutes prior to transduction of COS-7 cells with a luciferase-expressing adenovirus vector (AdLucGFP) at a multiplicity of infection (MOI) of 10. Media were changed 24-hours post-transfection, and cells were lysed in Passive Lysis Buffer 24 hours later. Protein quantities were standardized and luciferase activity was measured in the cell lysates.

[7] = Tpell phage, luciferase at 48 h

CC(C)C[C@H](NC(=O)[C@H](Cc1ccccc1)NC(=O)c1cnccn1)B(O)O [bortezomib]
nuclear accumulation of phage DNA (copies of lambda phage genomic DNA per cell) (HEK 293 cells [1]): statistically significant increase | cytotoxicity relative to the other proteasome inhibitors tested (HEK 293 cells [2]): least cytotoxic | effect of extended exposure on phage-mediated gene transfer (HEK 293 cells [3]; Tpell phage, MOI 1×10^6, bortezomib 10 nM for 24 h, luciferase at 48 h): robust, statistically significant, enhancement | effect on phage-mediated luciferase gene expression, agents alone and combined (HEK 293 cells [3]; Tpell phage, MOI 1×10^6, drugs for 24 h, luciferase at 48 h (FIG. 9)): modest increase | effect on plasmid-mediated luciferase expression (HEK 293 cells [4]): no effect

CC(C)C[C@@H](C=O)NC(=O)[C@H](CC(C)C)NC(=O)[C@H](CC(C)C)NC(=O)OCc1ccccc1 [MG132] (Cbz-Leu-Leu-Leu-aldehyde)
enhancement of phage-mediated luciferase expression (HEK 293 cells [3]; WT and Tpell phage, MOI 1×10^6, MG132 1 μM for 16 h, luciferase at 48 h, vs untreated cells): 5-10 fold | effect on phage-mediated luciferase gene expression (COS cells; WT and Tpell phage, MOI 1×10^6, lactacystin 3 μM, bortezomib 10 nM, MG132 1 μM for 16 h): strong trend

COC(=O)Nc1nc2ccc(C(=O)c3cccs3)cc2[nH]1 [nocodazole]
increase in plasmid gene transfer efficiency [5]: approx 50 fold

CO/C1=C\C(C)=C\[C@@H](C)[C@@H](O)[C@@H](C)C/C(C)=C/C=C/[C@H](OC)[C@@H]([C@@H](C)[C@@H](O)[C@H](C)[C@@]2(O)C[C@@H](O)[C@H](C)[C@@H](C(C)C)O2)OC1=O [bafilomycin A1]
effect on phage-mediated gene transfer (HEK 293 cells [3]; Tpell phage, MOI 1×10^6, bafilomycin A for 24 h, luciferase at 48 h): no effect | effect on phage-mediated gene transfer (COS cells; Tpell phage, MOI 1×10^6, bafilomycin A for 24 h): no effect | effect on endosomal pH (HEK 293 cells [6]): sufficient to raise endosomal pH

C/C1=C/C(=O)O[C@@H]2C[C@@H](CC[C@H](C)/C=C\C=C\CC1)O[C@@](O)([C@@H]1CSC(=O)N1)C2 [latrunculin A]
effect on adenoviral gene transfer efficiency (COS-7 cells): no effect | effect on efficiency of plasmid DNA expression ([5]; latrunculin A 120 nM): no effect

C[C@H]1CCC/C=C/[C@@H]2C[C@H](O)C[C@H]2[C@H](O)/C=C/C(=O)O1 [brefeldin A]
effect on phage-mediated luciferase gene transfer (HEK 293 cells [3]; [7]): no effect | effect on phage-mediated luciferase gene transfer (COS cells; Tpell phage): no effect

CCN(CC)CCCC(C)Nc1ccnc2cc(Cl)ccc12 (stereo not shown) [chloroquine]
effect on phage-mediated luciferase gene transfer (COS cells; Tpell phage): statistically significant enhancement

COc1ccc2[nH]c([S+]([O-])Cc3ncc(C)c(OC)c3C)nc2c1 (stereo not shown) [omeprazole]
effect on phage-mediated luciferase gene transfer (HEK 293 cells [3]; [7]): no effect | effect on phage-mediated luciferase gene transfer (COS cells; Tpell phage): no effect

CC(=O)O[C@H]1C(=O)[C@@]2(C)[C@H]([C@H](OC(=O)c3ccccc3)[C@]3(O)C[C@H](OC(=O)[C@H](O)[C@@H](NC(=O)c4ccccc4)c4ccccc4)C(C)=C1C3(C)C)[C@]1(OC(C)=O)CO[C@@H]1C[C@@H]2O [paclitaxel]
increase in plasmid gene transfer efficiency [5]: approx 50 fold
